EP0982399B1, “Thyroid hormone transporters, agonists and antagonists thereof” (Stichting tot bevordering van de wetenschap der …, priority 1998, dated 2000)
Counter-ions that a name gives are not always drawn.

Key:
[1] = system: Na^+-independent organic anion transporting polypeptide (oatp1); test: Uptake of [125I]iodothyronine derivatives by Xenopus laevis oocytes injected with oatp1 cRNA; details: oatp1 cRNA-injected oocytes; 1-2 nM ligand; Na^+ medium
Method: (§1) For capping, the m7G[5']ppp[5']G cap analog was used (Epicentre Technologies). cRNA was stored in water at -80 C at a concentration of 0.1 mg/ml.
(§2) Oocytes were prepared as described previously (9). After isolation, the oocytes were sorted on morphological criteria and defolliculated manually. […] The next day, oocytes were injected with 23 nl water containing 23 ng mRNA, 2.3 ng Ntcp cRNA or 2.3 ng oatp1 cRNA using the Nanoject system (Drummond Scientific, Broomall, PA). Injected and uninjected oocytes were maintained for 2-3 days at 18 C in modified Barth's solution.
(§3) Uptake assays were performed as described previously (9). […] After 1 h, incubation buffer was removed and the oocytes were washed four times with 2.5 ml ice-cold Na^+-containing incubation buffer supplemented with 0.1% BSA. Oocytes were transferred to new tubes and counted individually.

[2] = Uptake of [125I]iodothyronine derivatives by Xenopus laevis oocytes injected with Ntcp cRNA; details: for uptake ratio at 1 h: oatp1, choline
Method: as §1, §2, §3

Structure (SMILES)	uptake higher than that of the other sulfates [1] [%]	uptake ratio at 1 h, 100 µM [2]	uptake ratio at 1 h ([2]; xenopus oocytes)	uptake ratio at 1 h, 100 µM ([2]; xenopus oocytes, oatp1 crna)	uptake ratio at 1 h, 100 µM ([2]; xenopus oocytes, ntcp crna)
NC(Cc1cc(I)c(Oc2ccc(OS(=O)(=O)O)c(I)c2)c(I)c1)C(=O)O (stereo not shown) [T3S, T3 sulfate]	~50	–	–	–	–
N[C@@H](Cc1ccc(Oc2ccc(O)c(I)c2)c(I)c1)C(=O)O [3,3'-T2, 3,3'-diiodothyronine]	–	1.3	1.8	1.4	–
N[C@@H](Cc1ccc(Oc2cc(I)c(O)c(I)c2)c(I)c1)C(=O)O [rT3, 3,3',5'-triiodothyronine]	–	1.8	8.5	6	–
N[C@@H](Cc1cc(I)c(Oc2cc(I)c(O)c(I)c2)c(I)c1)C(=O)O [T4, 3,3',5,5'-tetraiodothyronine]	–	–	3.8	2.8	1.9
